Results as given in PMC8282797, “Strictly regulated agonist-dependent activation of AMPA-R is the key characteristic of TAK-653 for robust synaptic responses and cognitive improvement” (Scientific Reports, 2021).

Tests used:
rGluA1i = assay: Ca2+ influx assay in rGluA1i CHO cells (species difference); format: cell-based, rat; conditions: 3 mM glutamate
Experimental: Ca^2+ influx assays using human GluA1/flip and human stargazin co-expressing CHO cells plated at 3 × 10^4 cells/well in 96-well Black Clear plates (Corning Incorporated, Corning, NY) were performed as previously described, with some modifications. For evaluation of the species difference, rat GluA1/flip expressing CHO cells were plated. For mutant channels, the human GluA1i S743A mutant was generated using the In-Fusion HD Cloning Kit (Takara Bio Inc., Kusatsu, Japan) according to the manufacturer's protocol and transiently introduced to CHO cells by Gene Pulser II Electroporation System (Bio-Rad Laboratories, Inc., Hercules, CA). Relative increases of intracellular Ca^2+ levels were monitored for 3 min with a fluorometric imaging plate reader (CellLux, Perkin Elmer Life and Analytical Sciences, Inc., Shelton, CT). […]
Human GluA1/flip and human stargazin co-expressing CHO cells were plated at 3×10^4 cells/well in 96-well Black Clear plate (Corning Incorporated, Corning, NY). […] Relative increases of intracellular Ca^2+ levels by compounds in the presence and absence of 3 mM L-glutamate were monitored for 3 min by fluorometric imaging plate reader (CellLux, Perkin Elmer Life and Analytical Sciences, Inc., Shelton, CT). Activity of compound was defined as integration value of fluorescence value of each detection point. […] EC50 values were calculated by logistic regression analysis.

lipoxygenase 5-LO = target: T1, lipoxygenase 5-LO (Homo sapiens, UniProt P09917); assay: Lipoxygenase 5-LO enzyme activity; format: biochemical
T1 construct: Ricerca, Taipei, Taiwan
T1 sequence (P09917 1-674): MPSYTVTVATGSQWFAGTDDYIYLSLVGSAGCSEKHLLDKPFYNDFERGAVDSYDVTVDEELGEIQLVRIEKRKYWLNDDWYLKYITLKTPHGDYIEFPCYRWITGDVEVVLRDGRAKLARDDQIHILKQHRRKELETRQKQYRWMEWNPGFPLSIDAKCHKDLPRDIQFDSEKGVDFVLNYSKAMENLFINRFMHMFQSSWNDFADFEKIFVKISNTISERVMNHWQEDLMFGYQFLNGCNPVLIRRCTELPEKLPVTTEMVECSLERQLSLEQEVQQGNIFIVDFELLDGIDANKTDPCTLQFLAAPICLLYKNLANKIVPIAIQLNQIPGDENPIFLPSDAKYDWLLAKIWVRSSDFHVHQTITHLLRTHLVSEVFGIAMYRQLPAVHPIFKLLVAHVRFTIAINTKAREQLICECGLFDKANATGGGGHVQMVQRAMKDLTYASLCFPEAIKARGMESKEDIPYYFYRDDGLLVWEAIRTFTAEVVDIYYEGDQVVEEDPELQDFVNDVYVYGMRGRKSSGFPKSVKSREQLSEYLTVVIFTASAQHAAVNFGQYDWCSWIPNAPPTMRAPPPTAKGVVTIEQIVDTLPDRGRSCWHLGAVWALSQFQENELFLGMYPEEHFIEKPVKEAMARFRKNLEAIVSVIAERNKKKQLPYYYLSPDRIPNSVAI

rats = assay: Exposure margin against seizure after acute treatment; format: in vivo, rat; conditions: NOR improvement versus absence of seizure signs
Experimental: Thus, we decided to calculate the exposure safety margins of AMPA-R potentiators based on the cognitive improvement in the NOR test and the absence of signs of seizures. […] Thus, TAK-653 may have a wider exposure margin than LY451646 in rats.
The data were extracted from the studies conducted in accordance with the Good Laboratory Practice Regulation. […] The dose levels in the first study and second study were set at "100, 15 and 5 mg/kg, p.o." and "50, 15 and 5 mg/kg, p.o.", respectively. The dosing suspensions were administered into the stomach via a catheter in the morning at the dose volume of 5 mL/kg. Cage side observations to confirm tonic or […] convulsions were conducted before and at 1, 2, 4, 8 and 24 h after dosing in the first study and before and at 1, 4 and 24 h after dosing in the second study.
The Sprague–Dawley rats treated with orally administered TAK-653 were decapitated at each time point, and trunk blood was collected into 1.5-mL centrifuge tubes. Plasma was separated from the blood samples by centrifugation. The concentrations of TAK-653 in the plasma were determined using liquid chromatography/tandem mass spectrometry (LC/MS/MS).

CC1=CN2CCS(=O)(=O)N=C2C(c2ccc(OC3CCCCC3)cc2)=N1 [TAK-653, 9-[4-(Cyclohexyloxy)phenyl]-7-methyl-3,4-dihydropyrazino[2,1-c][1,2,4]thiadiazine 2,2-dioxide]
Fold difference in the EC50 value between rat and human receptors (rGluA1i): 1.1 fold | IC50 (lipoxygenase 5-LO): 5.9 µM | Margin based on AUCplasma (rats): 1017 fold | Margin based on plasma Cmax (rats): 419 fold
